Reference: ChEMBL document CHEMBL1157887, “4-Substituted 4-(1H-1,2,3-triazol-1-yl)piperidine: novel C7 moieties of fluoroquinolones as antibacterial agents” (2010)
Converted amounts (≈) assume the structure as drawn.

Tests used:
Assay type in all cases: functional
Escherichia coli = assay: Antibacterial activity against Escherichia coli by broth microdilution technique
Pseudomonas aeruginosa [1] = assay: Antibacterial activity against Pseudomonas aeruginosa by broth microdilution technique
Staphylococcus aureus [2] = assay: Antibacterial activity against Staphylococcus aureus ATCC 25923 by broth microdilution technique
Enterococcus faecalis = assay: Antibacterial activity against Enterococcus faecalis ATCC 29212 by broth microdilution technique
[3] = system: Staphylococcus epidermidis; assay: Antibacterial activity against Staphylococcus epidermidis ATCC 12228 by broth microdilution technique
Staphylococcus aureus [4] = assay: Antibacterial activity against multidrug resistant Staphylococcus aureus clinical isolate by broth microdilution technique
Pseudomonas aeruginosa [5] = assay: Antibacterial activity against multidrug resistant Pseudomonas aeruginosa clinical isolate by broth microdilution technique
[6] = system: Staphylococcus epidermidis; assay: Selectivity ratio of MIC of ciprofloxacin to MIC of compound for Staphylococcus epidermidis ATCC 12228

O=C(O)c1cn(C2CC2)c2nc(N3CCC(n4cc(-c5ccccc5)nn4)CC3)c(F)cc2c1=O
MIC (Escherichia coli): 32 µg/mL (≈ 67.4 µM)
MIC (Pseudomonas aeruginosa [1]): > 32 µg/mL
MIC (Staphylococcus aureus [2]): 0.5 µg/mL (≈ 1.05 µM)
MIC (Enterococcus faecalis): 1 µg/mL (≈ 2.11 µM)
MIC [3]: 0.5 µg/mL (≈ 1.05 µM)
MIC (Staphylococcus aureus [4]): 0.5 µg/mL (≈ 1.05 µM)

O=C(O)c1cn(C2CC2)c2nc(N3CCC(n4cc(/C=N/O)nn4)CC3)c(F)cc2c1=O
MIC (Escherichia coli): 2 µg/mL (≈ 4.53 µM)
MIC (Pseudomonas aeruginosa [1]): 32 µg/mL (≈ 72.5 µM)
MIC (Staphylococcus aureus [2]): 1 µg/mL (≈ 2.27 µM)
MIC (Pseudomonas aeruginosa [5]): 32 µg/mL (≈ 72.5 µM)
MIC (Enterococcus faecalis): 4 µg/mL (≈ 9.06 µM)
MIC [3]: 1 µg/mL (≈ 2.27 µM)
MIC (Staphylococcus aureus [4]): > 32 µg/mL

O=C(O)c1cn(C2CC2)c2nc(N3CCC(n4cc(CO)nn4)CC3)c(F)cc2c1=O
MIC (Escherichia coli): 0.5 µg/mL (≈ 1.17 µM)
MIC (Pseudomonas aeruginosa [1]): 32 µg/mL (≈ 74.7 µM)
MIC (Staphylococcus aureus [2]): 0.125 µg/mL (≈ 0.292 µM)
MIC (Pseudomonas aeruginosa [5]): 32 µg/mL (≈ 74.7 µM)
MIC (Enterococcus faecalis): 2 µg/mL (≈ 4.67 µM)
MIC [3]: 0.5 µg/mL (≈ 1.17 µM)
MIC (Staphylococcus aureus [4]): > 32 µg/mL

NCc1cn(C2CCN(c3nc4c(cc3F)c(=O)c(C(=O)O)cn4C3CC3)CC2)nn1
MIC (Escherichia coli): 16 µg/mL (≈ 37.4 µM)
MIC (Pseudomonas aeruginosa [1]): 32 µg/mL (≈ 74.9 µM)
MIC (Staphylococcus aureus [2]): 16 µg/mL (≈ 37.4 µM)
MIC (Pseudomonas aeruginosa [5]): 32 µg/mL (≈ 74.9 µM)
MIC (Enterococcus faecalis): > 32 µg/mL
MIC [3]: 32 µg/mL (≈ 74.9 µM)
MIC (Staphylococcus aureus [4]): > 32 µg/mL

COC(=O)c1cn(C2CCN(c3nc4c(cc3F)c(=O)c(C(=O)O)cn4C3CC3)CC2)nn1
MIC (Escherichia coli): 1 µg/mL (≈ 2.19 µM)
MIC (Pseudomonas aeruginosa [1]): 32 µg/mL (≈ 70.1 µM)
MIC (Staphylococcus aureus [2]): 1 µg/mL (≈ 2.19 µM)
MIC (Pseudomonas aeruginosa [5]): 32 µg/mL (≈ 70.1 µM)
MIC (Enterococcus faecalis): 16 µg/mL (≈ 35.1 µM)
MIC [3]: 1 µg/mL (≈ 2.19 µM)
MIC (Staphylococcus aureus [4]): > 32 µg/mL

NC(=O)c1cn(C2CCN(c3nc4c(cc3F)c(=O)c(C(=O)O)cn4C3CC3)CC2)nn1
MIC (Escherichia coli): 4 µg/mL (≈ 9.06 µM)
MIC (Pseudomonas aeruginosa [1]): 32 µg/mL (≈ 72.5 µM)
MIC (Staphylococcus aureus [2]): 1 µg/mL (≈ 2.27 µM)
MIC (Pseudomonas aeruginosa [5]): 32 µg/mL (≈ 72.5 µM)
MIC (Enterococcus faecalis): 4 µg/mL (≈ 9.06 µM)
MIC [3]: 2 µg/mL (≈ 4.53 µM)
MIC (Staphylococcus aureus [4]): > 32 µg/mL

O=C(O)c1cn(C2CC2)c2nc(N3CCC(n4cc(/C=N/OCc5ccccc5)nn4)CC3)c(F)cc2c1=O
MIC (Escherichia coli): 8 µg/mL (≈ 15.1 µM)
MIC (Pseudomonas aeruginosa [1]): 32 µg/mL (≈ 60.2 µM)
MIC (Staphylococcus aureus [2]): 1 µg/mL (≈ 1.88 µM)
MIC (Pseudomonas aeruginosa [5]): 32 µg/mL (≈ 60.2 µM)
MIC (Enterococcus faecalis): 4 µg/mL (≈ 7.53 µM)
MIC [3]: 1 µg/mL (≈ 1.88 µM)
MIC (Staphylococcus aureus [4]): 4 µg/mL (≈ 7.53 µM)

O=Cc1cn(C2CCN(c3nc4c(cc3F)c(=O)c(C(=O)O)cn4C3CC3)CC2)nn1
MIC (Escherichia coli): 0.25 µg/mL (≈ 0.586 µM)
MIC (Pseudomonas aeruginosa [1]): 16 µg/mL (≈ 37.5 µM)
MIC (Staphylococcus aureus [2]): 0.125 µg/mL (≈ 0.293 µM)
MIC (Pseudomonas aeruginosa [5]): 32 µg/mL (≈ 75 µM)
MIC (Enterococcus faecalis): 2 µg/mL (≈ 4.69 µM)
MIC [3]: 0.031 µg/mL (≈ 0.0727 µM)
Ratio [6]: 16
MIC (Staphylococcus aureus [4]): > 32 µg/mL

CC(O)c1cn(C2CCN(c3nc4c(cc3F)c(=O)c(C(=O)O)cn4C3CC3)CC2)nn1 (stereo unspecified)
MIC (Escherichia coli): 1 µg/mL (≈ 2.26 µM)
MIC (Pseudomonas aeruginosa [1]): 32 µg/mL (≈ 72.3 µM)
MIC (Staphylococcus aureus [2]): 2 µg/mL (≈ 4.52 µM)
MIC (Pseudomonas aeruginosa [5]): 32 µg/mL (≈ 72.3 µM)
MIC (Enterococcus faecalis): 8 µg/mL (≈ 18.1 µM)
MIC [3]: 2 µg/mL (≈ 4.52 µM)
MIC (Staphylococcus aureus [4]): > 32 µg/mL

CO/N=C/c1cn(C2CCN(c3nc4c(cc3F)c(=O)c(C(=O)O)cn4C3CC3)CC2)nn1
MIC (Escherichia coli): 2 µg/mL (≈ 4.39 µM)
MIC (Pseudomonas aeruginosa [1]): 32 µg/mL (≈ 70.3 µM)
MIC (Staphylococcus aureus [2]): 0.25 µg/mL (≈ 0.549 µM)
MIC (Pseudomonas aeruginosa [5]): 32 µg/mL (≈ 70.3 µM)
MIC (Enterococcus faecalis): 4 µg/mL (≈ 8.78 µM)
MIC [3]: 0.5 µg/mL (≈ 1.1 µM)
MIC (Staphylococcus aureus [4]): > 32 µg/mL

CCO/N=C/c1cn(C2CCN(c3nc4c(cc3F)c(=O)c(C(=O)O)cn4C3CC3)CC2)nn1
MIC (Escherichia coli): 4 µg/mL (≈ 8.52 µM)
MIC (Pseudomonas aeruginosa [1]): 32 µg/mL (≈ 68.2 µM)
MIC (Staphylococcus aureus [2]): 0.5 µg/mL (≈ 1.07 µM)
MIC (Pseudomonas aeruginosa [5]): 32 µg/mL (≈ 68.2 µM)
MIC (Enterococcus faecalis): 4 µg/mL (≈ 8.52 µM)
MIC [3]: 1 µg/mL (≈ 2.13 µM)
MIC (Staphylococcus aureus [4]): 32 µg/mL (≈ 68.2 µM)

C=CCO/N=C/c1cn(C2CCN(c3nc4c(cc3F)c(=O)c(C(=O)O)cn4C3CC3)CC2)nn1
MIC (Escherichia coli): 4 µg/mL (≈ 8.31 µM)
MIC (Pseudomonas aeruginosa [1]): 32 µg/mL (≈ 66.5 µM)
MIC (Staphylococcus aureus [2]): 0.5 µg/mL (≈ 1.04 µM)
MIC (Pseudomonas aeruginosa [5]): 32 µg/mL (≈ 66.5 µM)
MIC (Enterococcus faecalis): 8 µg/mL (≈ 16.6 µM)
MIC [3]: 2 µg/mL (≈ 4.15 µM)
MIC (Staphylococcus aureus [4]): 8 µg/mL (≈ 16.6 µM)

C#CCO/N=C/c1cn(C2CCN(c3nc4c(cc3F)c(=O)c(C(=O)O)cn4C3CC3)CC2)nn1
MIC (Escherichia coli): 4 µg/mL (≈ 8.34 µM)
MIC (Pseudomonas aeruginosa [1]): 32 µg/mL (≈ 66.7 µM)
MIC (Staphylococcus aureus [2]): 0.5 µg/mL (≈ 1.04 µM)
MIC (Pseudomonas aeruginosa [5]): 32 µg/mL (≈ 66.7 µM)
MIC (Enterococcus faecalis): 8 µg/mL (≈ 16.7 µM)
MIC [3]: 1 µg/mL (≈ 2.09 µM)
MIC (Staphylococcus aureus [4]): 32 µg/mL (≈ 66.7 µM)

CCC(O)c1cn(C2CCN(c3nc4c(cc3F)c(=O)c(C(=O)O)cn4C3CC3)CC2)nn1 (stereo unspecified)
MIC (Escherichia coli): 1 µg/mL (≈ 2.19 µM)
MIC (Pseudomonas aeruginosa [1]): 32 µg/mL (≈ 70.1 µM)
MIC (Staphylococcus aureus [2]): 2 µg/mL (≈ 4.38 µM)
MIC (Pseudomonas aeruginosa [5]): 32 µg/mL (≈ 70.1 µM)
MIC (Enterococcus faecalis): 8 µg/mL (≈ 17.5 µM)
MIC [3]: 2 µg/mL (≈ 4.38 µM)
MIC (Staphylococcus aureus [4]): > 32 µg/mL

O=C(O)c1cn(C2CC2)c2cc(N3CCNCC3)c(F)cc2c1=O [CIPROFLOXACIN]
MIC (Enterococcus faecalis): 1 µg/mL (≈ 3.02 µM)
MIC [3]: 0.5 µg/mL (≈ 1.51 µM)

CN[C@H](CC(C)C)C(=O)N[C@H]1C(=O)N[C@@H](CC(N)=O)C(=O)N[C@H]2C(=O)N[C@H]3C(=O)N[C@H](C(=O)N[C@H](C(=O)O)c4cc(O)cc(O)c4-c4cc3ccc4O)[C@H](O)c3ccc(c(Cl)c3)Oc3cc2cc(c3O[C@@H]2O[C@H](CO)[C@@H](O)[C@H](O)[C@H]2O[C@H]2C[C@](C)(N)[C@H](O)[C@H](C)O2)Oc2ccc(cc2Cl)[C@H]1O [VANCOMYCIN]
MIC (Enterococcus faecalis): 0.5 µg/mL (≈ 0.345 µM)
